Measurements: ChEMBL document CHEMBL1145871, “Design and pharmacology of peptoids and peptide-peptoid hybrids based on the melanocortin agonists core tetrapeptide sequence” (Bioorg Med Chem Lett, 2003)
pEC50: −log10 of the molar value. The source made the active and inactive calls. The calls are words filed in the database; no cut-off is given here. Where a SMILES comes first, the peptide text is derived from it. [ ]: non-standard residue; d: D form. Gly(N(CH2)2(3-indolyl)) = O=C(O)CNCCc1c[nH]c2ccccc12; Gly(N-CH2CH2-imidazol-4-yl) = O=C(O)CNCCc1c[nH]cn1; N(1-naphthylmethyl)Gly = O=C(O)CNCc1cccc2ccccc12; Gly(N-(CH2)3-guanidino) = N=C(N)NCCCNCC(=O)O; NhArg = N=C(N)NCCCCNCC(=O)O; Nphe = O=C(O)CNCc1ccccc1; Nlys = NCCCCNCC(=O)O

Columns and labels:
[1] = target: Melanocyte-stimulating hormone receptor (Mus musculus, UniProt Q01727); assay: Agonistic activity evaluated at melanocortin 1 receptor (MC1R) of mouse HEK293 cells; assay type: functional, cell-based
Melanocyte-stimulating hormone receptor, sequence (Q01727 whole entry): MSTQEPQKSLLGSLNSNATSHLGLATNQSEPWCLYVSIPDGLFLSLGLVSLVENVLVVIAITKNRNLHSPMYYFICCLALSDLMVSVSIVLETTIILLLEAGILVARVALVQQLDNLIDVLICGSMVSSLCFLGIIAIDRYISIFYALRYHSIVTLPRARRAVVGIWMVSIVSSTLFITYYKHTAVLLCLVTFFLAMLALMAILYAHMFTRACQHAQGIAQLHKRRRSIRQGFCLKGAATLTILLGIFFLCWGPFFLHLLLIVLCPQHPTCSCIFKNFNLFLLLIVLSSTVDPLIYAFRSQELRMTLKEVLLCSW

[2] = target: Melanocortin receptor 4 (Mus musculus) (UniProt P56450); assay: Percent stimulation at melanocortin 4 receptor (MC4R) of mouse HEK293 cells at a concentration of 100 uM; assay type: cell-based
Melanocortin receptor 4 (Mus musculus), sequence (P56450 whole entry): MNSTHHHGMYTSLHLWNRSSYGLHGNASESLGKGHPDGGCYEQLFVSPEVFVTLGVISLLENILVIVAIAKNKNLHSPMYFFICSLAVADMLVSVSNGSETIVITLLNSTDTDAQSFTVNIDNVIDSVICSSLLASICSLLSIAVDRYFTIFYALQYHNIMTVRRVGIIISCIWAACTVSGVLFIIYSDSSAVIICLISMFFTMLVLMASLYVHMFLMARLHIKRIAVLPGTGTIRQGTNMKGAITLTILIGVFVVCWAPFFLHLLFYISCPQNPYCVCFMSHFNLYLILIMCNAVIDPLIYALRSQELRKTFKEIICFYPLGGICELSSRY

[3] = target: Melanocortin receptor 5 (Mus musculus) (UniProt P41149); assay: Percent stimulation at melanocortin 5 receptor (MC5R) of mouse HEK293 cells at a concentration of 100 uM; assay type: cell-based
Melanocortin receptor 5 (Mus musculus), sequence (P41149 whole entry): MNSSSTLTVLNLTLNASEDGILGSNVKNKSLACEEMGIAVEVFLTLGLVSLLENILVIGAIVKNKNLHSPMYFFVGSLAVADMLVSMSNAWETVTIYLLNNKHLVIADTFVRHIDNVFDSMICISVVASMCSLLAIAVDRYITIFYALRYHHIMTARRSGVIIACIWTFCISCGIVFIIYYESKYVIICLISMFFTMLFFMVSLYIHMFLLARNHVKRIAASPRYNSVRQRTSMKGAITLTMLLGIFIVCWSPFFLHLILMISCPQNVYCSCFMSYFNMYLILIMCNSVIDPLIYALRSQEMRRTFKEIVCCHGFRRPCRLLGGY

[4] = target: Melanocortin receptor 3 (Mus musculus) (UniProt P33033); assay: Agonistic activity at melanocortin 3 receptor (MC3R) of mouse HEK293 cells at a concentration of 100 uM; NA=No activity; assay type: functional, cell-based
Melanocortin receptor 3 (Mus musculus), sequence (P33033 whole entry): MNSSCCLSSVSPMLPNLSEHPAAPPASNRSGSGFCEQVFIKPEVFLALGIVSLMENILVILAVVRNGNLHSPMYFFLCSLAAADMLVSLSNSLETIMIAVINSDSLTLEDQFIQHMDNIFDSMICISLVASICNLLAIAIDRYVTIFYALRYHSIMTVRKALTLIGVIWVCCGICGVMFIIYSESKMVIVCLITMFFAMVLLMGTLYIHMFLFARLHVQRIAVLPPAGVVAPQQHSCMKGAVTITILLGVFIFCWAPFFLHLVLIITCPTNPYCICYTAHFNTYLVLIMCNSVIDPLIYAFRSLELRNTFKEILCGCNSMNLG

[5] = target: Melanocortin receptor 3 (Mus musculus) (UniProt P33033); assay: Percent stimulation at melanocortin 3 receptor (MC3R) of mouse HEK293 cells at a concentration of 100 uM; assay type: cell-based
[6] = target: Melanocortin receptor 4 (Mus musculus, UniProt P56450); assay: Agonistic activity evaluated at melanocortin 4 receptor (MC4R) of mouse HEK293 cells; assay type: functional, cell-based
Melanocortin receptor 4, sequence (P56450 whole entry): as the sequence (P56450 whole entry) above

[7] = target: Melanocortin receptor 5 (Mus musculus, UniProt P41149); assay: Agonistic activity evaluated at melanocortin 5 receptor (MC5R) of mouse HEK293 cells; assay type: functional, cell-based
Melanocortin receptor 5, sequence (P41149 whole entry): as the sequence (P41149 whole entry) above

[8] = target: Melanocortin receptor 3 (Mus musculus, UniProt P33033); assay: Agonistic activity evaluated at melanocortin 3 receptor (MC3R) of mouse HEK293 cells; assay type: functional, cell-based
Melanocortin receptor 3, sequence (P33033 whole entry): as the sequence (P33033 whole entry) above

[9] = target: Melanocortin receptor 4 (Mus musculus) (UniProt P56450); assay: Agonistic activity at melanocortin 4 receptor (MC4R) of mouse HEK293 cells at a concentration of 100 uM; NA=No activity; assay type: functional, cell-based

Row | pEC50 [1] | Stimulation [2] | Stimulation [3] | Stimulation [4] | Stimulation [5] | pEC50 [6] | pEC50 [7] | pEC50 [8] | Stimulation [9] | SMILES
1 | 4.32 |  |  |  |  |  |  |  |  | CC(=O)N[C@@H](Cc1cnc[nH]1)C(=O)N(CC(=O)N[C@@H](CCCNC(=N)N)C(=O)N[C@@H](Cc1c[nH]c2ccccc12)C(N)=O)Cc1ccccc1
2 |  | 20% | 40% | inactive |  |  |  |  |  | CC(=O)N[C@@H](Cc1c[nH]cn1)C(=O)N(CC(=O)N[C@@H](CCCN=C(N)N)C(=O)N[C@@H](Cc1c[nH]c2ccccc12)C(N)=O)Cc1ccccc1
3 | 6.30 |  |  |  | 70% | 6.19 | 7.25 |  |  | CC(=O)N[C@@H](Cc1c[nH]cn1)C(=O)N[C@@H](Cc1ccccc1)C(=O)N[C@@H](CCCN=C(N)N)C(=O)N(CCc1c[nH]c2ccccc12)CC(N)=O (Ac-HFR[Gly(N(CH2)2(3-indolyl))]-NH2)
4 | 6.77 |  |  |  |  | 5.96 | 6.80 | 5.04 |  | CC(=O)N[C@@H](Cc1cnc[nH]1)C(=O)N[C@@H](Cc1ccccc1)C(=O)N(CCCNC(=N)N)CC(=O)N[C@@H](Cc1c[nH]c2ccccc12)C(N)=O (Ac-HF[Gly(N-(CH2)3-guanidino)]W-NH2)
5 | 5.77 |  |  |  |  | 6.06 | 6.28 |  |  | CC(=O)N(CCc1cnc[nH]1)CC(=O)N[C@@H](Cc1ccccc1)C(=O)N[C@@H](CCCNC(=N)N)C(=O)N[C@@H](Cc1c[nH]c2ccccc12)C(N)=O (Ac-[Gly(N-CH2CH2-imidazol-4-yl)]FRW-NH2)
6 |  |  |  |  | 60% |  |  |  |  | CC(=O)N(CCc1c[nH]cn1)CC(=O)N[C@@H](Cc1ccccc1)C(=O)N[C@@H](CCCN=C(N)N)C(=O)N[C@@H](Cc1c[nH]c2ccccc12)C(N)=O (Ac-[Gly(N-CH2CH2-imidazol-4-yl)]FRW-NH2)
7 | 5.18 | 65% |  |  | 55% |  | 5.28 |  |  | CC(=O)N(CCc1c[nH]cn1)CC(=O)N(CC(=O)N(CCCN=C(N)N)CC(=O)N(CCc1c[nH]c2ccccc12)CC(N)=O)Cc1ccccc1 (Ac-[Gly(N-CH2CH2-imidazol-4-yl)][Nphe][Gly(N-(CH2)3-guanidino)][Gly(N(CH2)2(3-indolyl))]-NH2)
8 | 4.57 |  |  |  | 75% | 4.57 | 5.13 |  |  | CC(=O)N(CCc1c[nH]cn1)CC(=O)N(CC(=O)N(CCCCN)CC(=O)N(CCc1c[nH]c2ccccc12)CC(N)=O)Cc1ccccc1 (Ac-[Gly(N-CH2CH2-imidazol-4-yl)][Nphe][Nlys][Gly(N(CH2)2(3-indolyl))]-NH2)
9 | 6.11 |  |  |  | 25% | 6.59 | 6.44 |  |  | CC(=O)N(CC(=O)N[C@@H](Cc1ccccc1)C(=O)N[C@@H](CCCN=C(N)N)C(=O)N[C@@H](Cc1c[nH]c2ccccc12)C(N)=O)Cc1ccccc1 (Ac-[Nphe]FRW-NH2)
10 | 5.12 |  |  |  | 55% |  | 4.70 |  | inactive | CC(=O)N(CC(=O)N(CC(=O)N(CCCCN=C(N)N)CC(=O)N(CC(N)=O)Cc1cccc2ccccc12)Cc1ccccc1)Cc1ccccc1 (Ac-[Nphe][Nphe][NhArg][N(1-naphthylmethyl)Gly]-NH2)
